The source of these data is article PMC7463460, “Structure and Antiparasitic Activity Relationship of Alkylphosphocholine Analogues against Leishmania donovani” (Microorganisms, 2020).

In data set [1] the test system is L. donovani 087/11 Milt-Sb-intermediate promastigotes. Nature of the data set: Promastigote luciferase assay, Milt-resistant 087/11. In kind it is cell-based, Leishmania donovani. As to conditions: for IC50: Leishmania donovani, read-out: Mean IC50 Value Promastigotes; for Promast: Amast Ratio / Cross-Resistance Index (CRI50) Promast: strain 087/11, Milt-Sb-intermediate. The source says:
(§1) L. donovani cloned strains with different Sb susceptibility backgrounds were derived from isolates obtained from VL patients at the B.P. Koirala Institute of Health Sciences, Dharan, Nepal: MHOM/NP/02/BPK282/0cl4 (Sb sensitive, Sb-S). MHOM/NP/02/BPK087/0cl11 (Sb intermediate, Sb-I) and MHOM/NP/02/BPK275/0cl18 (Sb resistance, Sb-R [13]). In addition, Milt-resistant parasites raised against these three Sb sensitivity backgrounds and the Sb-sensitive strain (MHOM/ET/67:LV82) was also used in studies. Luciferase expressing promastigotes for the LV82 and Nepalese strains were prepared using previously published methods and the integrative construct (a gift from Dr D.F. Smith), designated pGL1313, contained pSSU-int fragments to facilitate integration into the ribosomal RNA locus of Leishmania.
(§2) The anti-leishmanial activity of APC against L. donovani luciferase-expressing promastigotes was determined by adding of the appropriate 100 µL parasite line (10^6 cells/mL) to the wells of a 96-well plate and adding 100 µL medium alone (controls) or 100 µL of APC compound (0.01 µg/mL–6.25 µg/mL, n = 3/treatment). […].
(§3) Luciferin solution (1 µg/mL in 20 µL medium without FCS) was added to the appropriate wells of the 96-well plate at the end of the experiment and the amount of light emitted/well was measured using a luminometer (Biotek Synergy HT, relative light units) using a wavelength/bandwidth of 440/40 nm, or IVIS® imaging (Spectrum Living Image system®, total flux, photons/sec).
(§4) The effect of drug treatment on parasite survival was determined by calculating the mean suppression in the light emitted from the drug-treated experimental sample compared to the mean control value and used to calculate the IC50 using Grafit® software (version 5.0, Erithacus Software, East Grinstead, West Sussex, UK). The effect of drug alone on the viability of uninfected macrophages was determined using the same experimental protocol above, but cell viability was determined using an alamar blue colorimetric assay. At the end of the incubation period, cells’ 10 µL resazurin solution (0.02% w/v) was added to control and drug treated cells and the absorbance of samples was read at 575 and 595 nm. The effect of drug treatment on cell survival, which correlates with the magnitude of dye reduction, was expressed as percentage viability (or alamar blue reduction) and determined using the formula provided in the manufacturer’s protocol % alamar blue reduction=(εoxλ)(Aλ1)−(εoxλ1)(Aλ2)/(εredλ1)(A^′λ2)−(εredλ2)(A^′λ1)x100
(§5) Cross resistance (CRI50) indexes were determined as Cross selectivity indices (CRI)=mean IC50 value for the relevant drug−resistant strain i.e., Sb−I or Sb−R / mean IC50 value drug−sensitive strain Sb−S

The subject of data set [2] is L. donovani 275/18 Milt-Sb-resistant promastigotes. The experiment in a line: Promastigote luciferase assay, Milt-resistant 275/18. Type of data set: cell-based, Leishmania donovani. As to conditions: for IC50: Leishmania donovani, read-out: Mean IC50 Value Promastigotes.
Source text: as §1, §2, §3, §4, §5

The subject of data set [3] is L. donovani LV82 promastigotes. The experiment in a line: Luciferase-expressing promastigote assay, strain LV82. Type of data set: cell-based, Leishmania donovani. The conditions noted are these: for Promast: Amast Ratio / IC90: LV82; for IC50 / IC90: Leishmania donovani; for IC50: 72 h. Here is the method: (§6) The anti-leishmanial activity of APC against L. donovani luciferase-expressing promastigotes was determined by adding of the appropriate 100 µL parasite line (10^6 cells/mL) to the wells of a 96-well plate and adding 100 µL medium alone (controls) or 100 µL of APC compound (0.01 µg/mL–6.25 µg/mL, n = 3/treatment). The plate was incubated for 72 h at 25 °C. In combination assays, the additional compound/compounds, at a final concentration of 0.195 or 0.39 µg/mL, was added to the initial APC being tested.
as §3, §4

The subject of data set [4] is L. donovani 282/4 (Sb-sensitive) promastigotes. The experiment in a line: Promastigote luciferase assay, Sb-sensitive strain 282/4. Type of data set: cell-based, Leishmania donovani. The conditions noted are these: strain 282/4, Sb-sensitive; for IC50: Leishmania donovani.
Source text: as §1, §6, §3, §4

Data set [5] has as its system L. donovani 087/11 Milt-Sb-intermediate intracellular amastigotes. Nature of the data set: Intracellular amastigote assay, Milt-resistant 087/11. Type of data set: cell-based, Leishmania donovani. The conditions noted are these: for IC50: Leishmania donovani, read-out: Mean IC50 Value Amastigotes; for Cross-Resistance Index (CRI50) Amast / Selectivity Index (SI50): strain 087/11, Milt-Sb-intermediate; for Selectivity Index (SI50): macrophage CC50 / amastigote IC50.
Source text: as §1
In the macrophage studies, the method described in previous studies was used as follows. Briefly, bone-marrow-derived BALB/c macrophages (1–2 × 10^5) in 100 µL complete RPMI 1640 medium were added to the wells of a 96 well plate and left to adhere for 24 h at 37 °C, 5% CO₂/95% air. The medium was removed and 100 µL of the appropriate L. donovani luciferase-expressing promastigotes line (parasite: host cell ratio 1:10, 1:20 or 1:40) was added to each well, the ratio used reflected the infectivity of the strain and ensured that control data gave a bioluminescent signal within the same range. […] The variability in infectivity complicates strain to strain comparisons, but we decided to focus on achieving good infection levels in controls so that the effect of drug treatment could be determined. It is possible that intracellular macrophage parasites could have been at different developmental stages at 24 h post-infection. […] Therefore, we assumed that the effect of compounds on the amastigote stage rather than the promastigotes stage was determined in in vitro macrophage studies.
The plate was incubated for a further 24 h, the medium removed, and each well washed with PBS to eliminate non-internalized parasites, which were monitored microscopically. When the wells were devoid of external parasites, 100 µL of the medium alone (control) or appropriate APC compound was then added (0.01–0.197 µg/mL, n = 3/treatment). […]. All plates were incubated for 72 h at 37 °C, 5% CO₂/95% air. Wells with macrophage and with no drug or promastigotes added were used in control experiments.
as §3
as §4, with “reduction=(εoxλ)(Aλ1)−(εoxλ1)(Aλ2)/(εredλ1)(A^′λ2)−(εredλ2)(A^′λ1)x100 […]” for “reduction=(εoxλ)(Aλ1)−(εoxλ1)(Aλ2)/(εredλ1)(A^′λ2)−(εredλ2)(A^′λ1)x100”

Details of data set [6]: method as in Anatrace product description sheet. As to conditions: critical micellar concentration; ref Anatrace product description sheet; cited from earlier work.
Setting [7] is: strain 275/18, Milt-Sb-resistant.

Several values for one entry are separate records, joined by “and”; a condition that tells them apart may be missing. Identical values can stand only once. Where only a bound is given, the exact number is not on record here.

Turning to `CCCCCCCCCCCCCCCCOP(=O)([O-])OCC[N+](C)(C)C` [APC16, hexadecylphosphocholine, reference compound], the IC50 in data set [1] was 242 µg/mL and 560 µM; in data set [2], > 125 µg/mL and > 307 µM; in data set [3] (LV82, 3 days, 25 °C) it was 0.7 µg/mL and 1.72 µM; in data set [4], 0.84 µg/mL and 2.06 µM; in data set [5], 12.7 µg/mL and 31 µM. The “Promast: Amast Ratio” value was determined as 19.13 in data set [1], 2.04 in data set [2] (setting [7]), 7.00 in data set [3] and 2.68 in data set [4]. For the same compound, the IC90 in data set [3] worked out at 6.3 ± 0.1 µg/mL. Further, the CMC in data set [6] is listed as 0.41 µg/mL.

With `CCCCCCCCCCCCCCOP(=O)([O-])OCC[N+](C)(C)C` [APC14, tetradecylphosphocholine], the half-inhibitory concentration (IC50) in data set [1] is 232 µg/mL and 630 µM; in data set [2], > 125 µg/mL and > 329 µM; in data set [3] (LV82, 3 days, 25 °C) it was 0.2 µg/mL and 530 nM; in data set [4] it was 0.44 µg/mL and 1.16 µM; in data set [5], 10 µg/mL and 26.4 µM. The “Cross-Resistance Index (CRI50) Promast” value in data set [1] is on record as over 1.86; in data set [2] (setting [7]), 1.00. The “Promast: Amast Ratio” value in data set [1] is 23.13; in data set [3] it was 7.97; in data set [4], 3.64. Also, the “Cross-Resistance Index (CRI50) Amast” value in data set [5] is listed as over 5.95. For the same compound, the “Selectivity Index (SI50)” value in data set [5] came out at 4.08. Besides, in data set [6], the CMC is recorded as 45.54 µg/mL.

Turning to `CCCCCCCCCCCCOP(=O)([O-])OCC[N+](C)(C)C` [APC12, dodecylphosphocholine], in data set [1], the 50% inhibitory concentration (IC50) is 184 µg/mL and 520 µM; the “Cross-Resistance Index (CRI50) Promast” value is given as over 1.47; the “Promast: Amast Ratio” value was determined as 29.82. Besides, in data set [2], the IC50 is > 125 µg/mL and > 356 µM. Also, in data set [2] (setting [7]), the “Promast: Amast Ratio” value was over 28.09. In data set [3], the “Promast: Amast Ratio” value turned out to be 16.46 and the IC90 was 1.47 µg/mL. For the same compound, in data set [3] (LV82, 3 days, 25 °C), the “Promastigotes mean IC50” value is 0.16 ± 0.00 µg/mL; the IC50 is 0.163 µg/mL and 460 nM. In data set [3] (promastigotes), the “fold more active than Milt (APC16)” value was 10 fold. For the same compound, in data set [4], the IC50 was 0.55 µg/mL and 1.56 µM; the “Promast: Amast Ratio” value was 2.09. In data set [5], the IC50 was 6.17 µg/mL and 17.6 µM; the “Cross-Resistance Index (CRI50) Amast” value came out at 77.13; the “Selectivity Index (SI50)” value turned out to be 5.73. In addition, in data set [6], the CMC is given as 351.50 µg/mL.
